Laboratory results: US7595300B2, “7-quinolyl ketolide antibacterial agents” (priority 2005, dated 2009)
Values after ≈ are worked out from the molar mass of the structure shown. Where two headings read alike, the source gives them in different places.

Tests used:
S. pyogenes = test: MIC, NCCLS broth microdilution, respiratory pathogens; type: cell-based; conditions: Streptococcus pyogenes; for MIC50: read-out: MIC50; for MIC90: read-out: MIC90
Experimental: (§1) Minimum inhibitory concentrations (“MICs”) were determined by the NCCLS broth microdilution procedure for susceptibility testing for bacteria that grow aerobically (National Committee for Clinical Laboratory Standards, 1997. Methods for dilution antimicrobial susceptibility tests for bacteria that grow aerobically, 4th ed. Approved standard. NCCLS Document M7-A4. National Committee for Clinical Laboratory Standards, Villanova, Pa.). Stock solutions were prepared on the day of the test and appropriate aliquots were added to cation adjusted Mueller-Hinton broth (CAMHB, DIFCO) or Haemophilus test media. Two-fold serial dilutions were prepared and added to wells in microtiter plates. Final test concentrations ranged from 8 to 0.004 ug/ml. Broth cultures of bacteria inoculated from growth on overnight plates for all test bacteria except Streptococcus pneumoniae and Haemophilus influenzae were incubated at 35° C. and then adjusted to the Kirby Bauer standard and diluted in CAMHB to achieve a final inoculum concentration of approximately 5×10^5 CFU/ml. Inocula for S. pneumoniae and H. influenzae were prepared by directly suspending colonies from an overnight plate, adjusting the turbidity and diluting as above. S. pneumoniae media was supplemented with 3% lysed horse blood. All plates were incubated in ambient air at 35° C. for 20-24 h for S. pneumoniae and Haemophilus influenzae and 16-20 h for all other bacteria.

Streptococcus pneumoniae = test: as above; type: cell-based; conditions: S. pneumoniae; for MIC50: read-out: MIC50; for MIC90: read-out: MIC90
Experimental: as §1

M. catarrhalis = test: as above; type: cell-based; conditions: Moraxella catarrhalis, M. catarrhalis
Experimental: as §1

Haemophilus influenzae = test: as above; type: cell-based; conditions: H. influenzae
Experimental: as §1

P. acnes = test: MIC, NCCLS Reference Agar Dilution Method for anaerobic bacteria; type: cell-based, Propionibacterium acnes
Experimental: (§2) Minimum inhibitory concentrations (“MICs”) were determined by the NCCLS Reference Agar Dilution Method (M11-A5, Vol. 21, No. 2) for anaerobic bacteria. A panel of 84 antibiotic-susceptible and resistant strains of Propionibacteria from distinct geographic locations were selected. Following revival from frozen stocks, each strain was purity plated onto Wilkins Chalgren Agar, pH 7.2 (Oxoid, UK), and the appropriate antibiotic resistance/susceptibility phenotype was confirmed by antibiotic disc testing. Each strain was subjected to an agar dilution MIC assay. […] The inocula for each batch of strains were prepared from 7-day old Wilkins Chalgren Agar plate cultures by resuspension of colonies in Wilkins Chalgren Anaerobe broth, pH 7.2 (Oxoid, UK) to an optical density (OD600) of 0.2±0.02. The inoculum (1.0-2.0 μL) for each strain was applied to a Wilkins Chalgren Agar MIC plate in a grid pattern using a Multipoint Inoculator (Denley, UK). All agar plates were incubated at 37° C. for 3 days under anaerobic conditions in AnaeroPack 7 liter rectangular jars (Mitsubishi Gas Chemical Company, Inc., Japan).

P. granulosum = test: as above; type: cell-based, Propionibacterium granulosum
Experimental: as §2

anesthetized guinea pigs = test: Cardiovascular safety, QTc interval in anesthetized guinea pigs, i.v. bolus; type: in vivo, guinea pig; conditions: for QTc prolongation (% above vehicle): anesthetized guinea pig, incremental i.v. bolus doses 0.47 to 15 mg/kg; for effect on the QTc interval in the anesthetized guinea pig: cumulative doses up to 30 mg/kg, relative to vehicle controls
Experimental: (§3) Total doses of drug (0.47, 0.94, 1.88, 3.75, 7.5, and 15 mg/kg) or equivalent volumes of vehicle were administered incrementally as an i.v. bolus to groups of 6 anesthetized rats or guinea pigs at 0, 15, 30, 45, 60, and 75 minutes. Hemodynamic parameters including mean arterial pressure (MAP) and heart rate (HR), and ECG parameters (QT and PR intervals and QRS duration) were recorded. For the rat, injection of vehicle gave a 16% increase in QT interval over baseline. For the guinea pig, injection of vehicle gave a 3% increase in QT interval over baseline.

anesthetized rats = test: Cardiovascular safety, QT interval in anesthetized rats, i.v. bolus; type: in vivo, rat; conditions: anesthetized rat, incremental i.v. bolus doses 0.47 to 15 mg/kg
Experimental: as §3

[1] = Pharmacokinetics in the mouse, plasma and lung tissue; type: in vivo; conditions: oral gavage 10 mg/kg; for Lung AUC / Lung Cmax: mouse lung tissue; for Plasma AUC / Plasma Cmax: mouse plasma
Experimental: The pharmacokinetics of compounds of formula (VIII) and compounds of formula (II) and (III) were measured in the mouse. Compounds were administered either intravenously (i.v.) at 1 mg/kg, or per oral gavage (p.o.) at 10 mg/kg. Plasma samples were taken and analyzed by LC/MS-MS. For lung tissue pharmacokinetics, lungs were removed and homogenized, followed by analyzis by LC/MS-MS.

[2] = marker RNA 2057, phenotype EryR
[3] = marker RNA 2058, phenotype EryR
[4] = marker RNA 2059, phenotype EryR

CC[C@H]1OC(=O)[C@H](C)[C@@H](O[C@H]2C[C@@](C)(OC)[C@@H](O)[C@H](C)O2)[C@H](C)[C@@H](O[C@@H]2O[C@H](C)C[C@H](N(C)C)[C@H]2O)[C@](C)(OC)C[C@@H](C)C(=O)[C@H](C)[C@@H](O)[C@]1(C)O [clarithromycin, reference compound]
MIC50 (S. pyogenes; genotype ermB): > 8 µg/mL
MIC90 (S. pyogenes; genotype ermB): > 8 µg/mL
MIC50 (S. pyogenes; genotype mef): 8 µg/mL (≈ 10.7 µM)
MIC90 (S. pyogenes; genotype mef): > 8 µg/mL
MIC50 (S. pyogenes; genotype sensitive): 0.06 µg/mL (≈ 0.0802 µM)
MIC90 (S. pyogenes; genotype sensitive): 0.06 µg/mL (≈ 0.0802 µM)
MIC50 (Streptococcus pneumoniae; 20 h, genotype ermB + mef): > 8 µg/mL
MIC90 (Streptococcus pneumoniae; genotype ermB + mef): > 8 µg/mL
MIC50 (Streptococcus pneumoniae; genotype ermB): > 8 µg/mL
MIC90 (Streptococcus pneumoniae; genotype ermB): > 8 µg/mL
MIC50 (Streptococcus pneumoniae; genotype mef): 4 µg/mL (≈ 5.35 µM)
MIC90 (Streptococcus pneumoniae; genotype mef): 8 µg/mL (≈ 10.7 µM)
MIC50 (Streptococcus pneumoniae; genotype sensitive): 0.06 µg/mL (≈ 0.0802 µM)
MIC90 (Streptococcus pneumoniae; genotype sensitive): 0.06 µg/mL (≈ 0.0802 µM)
MIC50 (M. catarrhalis; read-out: MIC50): 0.12 µg/mL (≈ 0.16 µM)
MIC90 (M. catarrhalis; read-out: MIC90): 0.12 µg/mL (≈ 0.16 µM)
MIC50 (Haemophilus influenzae; resistant): > 8 µg/mL
MIC90 (Haemophilus influenzae; resistant): > 8 µg/mL
MIC50 (Haemophilus influenzae; sensitive): 8 µg/mL (≈ 10.7 µM)
MIC90 (Haemophilus influenzae; sensitive): 8 µg/mL (≈ 10.7 µM)

CCC[C@@H]1C[C@@H](C(=O)N[C@@H]([C@H]2O[C@H](SC)[C@H](O)[C@@H](O)[C@H]2O)[C@H](C)Cl)N(C)C1 [clindamycin]
MIC range (P. acnes; marker RNA 1058, phenotype TetR): 0.25 to 256 µg/mL
MIC range (P. acnes; marker RNA 1058/2058, phenotype TetR, EryR): 256 µg/mL (≈ 602 µM)
MIC range (P. acnes; marker RNA 1058/2059, phenotype TetR, EryR): 8 to 16 µg/mL
MIC range (P. acnes; [2]): 1 µg/mL (≈ 2.35 µM)
MIC range (P. acnes; [3]): 8 to 256 µg/mL
MIC range (P. acnes; marker RNA 2058, phenotype EryR, TetR): 2 to 256 µg/mL
MIC range (P. acnes; [4]): 8 to 256 µg/mL
MIC range (P. acnes; marker RNA 2059, phenotype EryR, TetR): 8 to 32 µg/mL
MIC range (P. acnes; marker ermX, phenotype EryR): >512 µg/mL
MIC range (P. acnes; marker none, phenotype none): 0.125 to 1 µg/mL
MIC range (P. acnes; marker unknown, phenotype ClindR): 4 µg/mL (≈ 9.41 µM)
MIC range (P. granulosum; [3]): 512 µg/mL (≈ 1200 µM)
MIC range (P. granulosum; [4]): 2 to 512 µg/mL
MIC range (P. granulosum; marker ermX, phenotype EryR): 512 µg/mL (≈ 1200 µM)
MIC range (P. granulosum; marker none, phenotype none): 0.06 to 0.25 µg/mL

CC[C@H]1OC(=O)[C@H](C)[C@@H](O[C@H]2C[C@@](C)(OC)[C@@H](O)[C@H](C)O2)[C@H](C)[C@@H](O[C@@H]2O[C@H](C)C[C@H](N(C)C)[C@H]2O)[C@](C)(O)C[C@@H](C)C(=O)[C@H](C)[C@@H](O)[C@]1(C)O [erythromycin]
MIC range (P. acnes; [2]): 4 µg/mL (≈ 5.45 µM)
MIC range (P. granulosum; marker none, phenotype none): 0.06 to 8 µg/mL

CC1CC(N(C)C)C(O)C(O[C@@H]2[C@@H](C)C(=O)[C@@H](C)C(=O)O[C@H](CCF)[C@@]3(C)OC(=O)N[C@@H]3[C@@H](C)C(=O)[C@H](C)C[C@@]2(C)OC/C=C/c2cnc3ccccc3c2)O1 (stereo partly shown) [A]
QTc prolongation (% above vehicle) (anesthetized guinea pigs): 10 % above vehicle
effect on the QTc interval in the anesthetized guinea pig (anesthetized guinea pigs): pronounced, dose-dependent prolongation of the QT interval
QT prolongation (% above vehicle) (anesthetized rats): 8 % above vehicle
Lung AUC [1]: 2.3 ug/mL-h
Lung Cmax [1]: 800 ng/mL
Plasma AUC [1]: 0.7 ug/mL-h
Plasma Cmax [1]: 400 ng/mL

CC1CC(N(C)C)C(O)C(O[C@@H]2[C@@H](C)C(=O)[C@](C)(F)C(=O)O[C@H](CCF)[C@@]3(C)OC(=O)N[C@@H]3[C@@H](C)C(=O)[C@H](C)C[C@@]2(C)OC/C=C/c2cnc3ccccc3c2)O1 (stereo partly shown) [B]
QTc prolongation (% above vehicle) (anesthetized guinea pigs): 3 % above vehicle
effect on the QTc interval in the anesthetized guinea pig (anesthetized guinea pigs): smaller yet persistent increase in QTc at the highest dose
QT prolongation (% above vehicle) (anesthetized rats): 10 % above vehicle
Lung AUC [1]: 19.0 ug/mL-h
Lung Cmax [1]: 3300 ng/mL
Plasma AUC [1]: 3.9 ug/mL-h
Plasma Cmax [1]: 1000 ng/mL

CC1CC(N(C)C)C(O)C(O[C@@H]2[C@@H](C)C(=O)[C@@H](C)C(=O)O[C@H](CCF)[C@@]3(C)OC(=O)N[C@@H]3[C@@H](C)C(=O)[C@H](C)C[C@@]2(C)OC/C=C/c2ccc3ncccc3c2)O1 (stereo partly shown) [C]
QTc prolongation (% above vehicle) (anesthetized guinea pigs): 12 % above vehicle
effect on the QTc interval in the anesthetized guinea pig (anesthetized guinea pigs): pronounced, dose-dependent prolongation of the QT interval
QT prolongation (% above vehicle) (anesthetized rats): 20 % above vehicle

CC1CC(N(C)C)C(O)C(O[C@@H]2[C@@H](C)C(=O)[C@@H](C)C(=O)O[C@H](CCF)[C@@]3(C)OC(=O)N[C@@H]3[C@@H](C)C(=O)[C@H](C)C[C@@]2(C)OC/C=C/c2cnc3cccnc3c2)O1 (stereo partly shown) [D]
QTc prolongation (% above vehicle) (anesthetized guinea pigs): 14 % above vehicle
effect on the QTc interval in the anesthetized guinea pig (anesthetized guinea pigs): pronounced, dose-dependent prolongation of the QT interval
QT prolongation (% above vehicle) (anesthetized rats): 28 % above vehicle

CC1CC(N(C)C)C(O)C(O[C@@H]2[C@@H](C)C(=O)[C@@H](C)C(=O)O[C@H](CCF)[C@@]3(C)OC(=O)N[C@@H]3[C@@H](C)C(=O)[C@H](C)C[C@@]2(C)OC/C=C/c2ccc3nccnc3c2)O1 (stereo partly shown) [G]
QTc prolongation (% above vehicle) (anesthetized guinea pigs): 1 % above vehicle
effect on the QTc interval in the anesthetized guinea pig (anesthetized guinea pigs): moderate, dose-dependent increase in the QTc interval that slowly returned to baseline
QT prolongation (% above vehicle) (anesthetized rats): 12 % above vehicle
Lung AUC [1]: 2.2 ug/mL-h
Lung Cmax [1]: 450 ng/mL
Plasma AUC [1]: 0.54 ug/mL-h
Plasma Cmax [1]: 210 ng/mL
